Assay results as given in the NIST ThermoML archive (doi:10.1016/j.jct.2007.08.008).
“And” between values parts separate entries of the source, which are not always exact repeats. Equal entries are not always repeated. ± gives the expanded uncertainty stated by the source.

Settings: Crystal; for mass density: 298.15 K, 101.33 kPa, measurement of volume and mass of pellet; for vapor or sublimation pressure: Calculated from knudsen effusion weight loss

c1ccc(-c2cccc(-c3ccccc3)c2)cc1 [m-terphenyl]
Settings	mass density [kg/m3]	vapor or sublimation pressure
–	1140 ± 20	–
337.28 K	–	6.28e-05 ± 3.2e-06 kPa and 6.44e-05 ± 3.2e-06 kPa and 6.48e-05 ± 3.3e-06 kPa
339.22 K	–	8.09e-05 ± 4.1e-06 kPa and 8.13e-05 ± 4.1e-06 kPa and 7.88e-05 ± 4e-06 kPa
341.11 K	–	0.000101 ± 5e-06 kPa and 9.73e-05 ± 4.9e-06 kPa
343.27 K	–	0.000133 ± 7e-06 kPa and 0.00013 ± 1e-05 kPa and 0.000134 ± 7e-06 kPa
345.21 K	–	0.000164 ± 8e-06 kPa and 0.000163 ± 8e-06 kPa and 0.000162 ± 8e-06 kPa
347.1 K	–	0.000197 ± 1e-05 kPa and 0.000204 ± 1e-05 kPa
349.27 K	–	0.000263 ± 1.3e-05 kPa and 0.000257 ± 1.3e-05 kPa and 0.000264 ± 1.3e-05 kPa
351.2 K	–	0.000324 ± 1.6e-05 kPa and 0.000328 ± 1.6e-05 kPa
353.11 K	–	0.000403 ± 2e-05 kPa and 0.000399 ± 2e-05 kPa
355.28 K	–	0.000518 ± 2.6e-05 kPa and 0.000524 ± 2.6e-05 kPa and 0.000532 ± 2.7e-05 kPa
357.19 K	–	0.000655 ± 3.3e-05 kPa and 0.00065 ± 3.3e-05 kPa and 0.000648 ± 3.2e-05 kPa
359.1 K	–	0.000797 ± 4e-05 kPa and 0.00081 ± 4.1e-05 kPa and 0.000807 ± 4e-05 kPa

c1ccc(-c2ccccc2-c2ccccc2)cc1 [o-terphenyl]
Settings	mass density [kg/m3]	vapor or sublimation pressure
–	1120 ± 20	–
312.3 K	–	6.04e-05 ± 3e-06 kPa and 6.13e-05 ± 3.1e-06 kPa and 5.87e-05 ± 2.9e-06 kPa
313.79 K	–	7.08e-05 ± 3.6e-06 kPa and 7.16e-05 ± 3.6e-06 kPa
315.13 K	–	8.28e-05 ± 4.2e-06 kPa
315.14 K	–	8.47e-05 ± 4.2e-06 kPa and 8.48e-05 ± 4.3e-06 kPa
315.78 K	–	7.29e-05 ± 1.2e-05 kPa
316.78 K	–	0.000103 ± 5e-06 kPa and 0.000102 ± 5e-06 kPa and 0.000104 ± 5e-06 kPa
318.28 K	–	0.000125 ± 6e-06 kPa and 0.000123 ± 6e-06 kPa and 0.000124 ± 6e-06 kPa
319.64 K	–	0.000143 ± 7e-06 kPa and 0.000145 ± 7e-06 kPa and 0.000148 ± 7e-06 kPa
321.28 K	–	0.000181 ± 9e-06 kPa and 0.000179 ± 9e-06 kPa and 0.000174 ± 9e-06 kPa
322.78 K	–	0.000217 ± 1.1e-05 kPa and 0.000212 ± 1.1e-05 kPa
324.14 K	–	0.000247 ± 1.2e-05 kPa and 0.000249 ± 1.2e-05 kPa
325.78 K	–	0.000305 ± 1.5e-05 kPa and 0.000308 ± 1.5e-05 kPa and 0.0003 ± 1.5e-05 kPa
327.28 K	–	0.000368 ± 1.8e-05 kPa and 0.00036 ± 1.8e-05 kPa and 0.000361 ± 1.8e-05 kPa
328.63 K	–	0.000419 ± 2.1e-05 kPa and 0.000422 ± 2.1e-05 kPa and 0.000423 ± 2.1e-05 kPa

c1ccc(-c2ccc(-c3ccccc3)cc2)cc1 [p-terphenyl]
Settings	mass density [kg/m3]	vapor or sublimation pressure
–	1200 ± 20	–
373.27 K	–	0.000127 ± 6e-06 kPa and 0.000126 ± 6e-06 kPa and 0.000125 ± 6e-06 kPa
375.22 K	–	0.000154 ± 8e-06 kPa and 0.000153 ± 8e-06 kPa
377.14 K	–	0.000185 ± 9e-06 kPa and 0.000189 ± 9e-06 kPa and 0.000182 ± 9e-06 kPa
379.28 K	–	0.000232 ± 1.2e-05 kPa and 0.000233 ± 1.2e-05 kPa and 0.000234 ± 1.2e-05 kPa
381.21 K	–	0.00028 ± 2e-05 kPa and 0.000283 ± 1.4e-05 kPa and 0.000281 ± 1.4e-05 kPa
383.28 K	–	0.000344 ± 1.7e-05 kPa and 0.000347 ± 1.7e-05 kPa and 0.000348 ± 1.7e-05 kPa
385.17 K	–	0.000421 ± 2.1e-05 kPa and 0.000417 ± 2.1e-05 kPa
387.12 K	–	0.000516 ± 2.6e-05 kPa and 0.000498 ± 2.5e-05 kPa
389.27 K	–	0.000628 ± 3.1e-05 kPa and 0.000626 ± 3.1e-05 kPa and 0.000631 ± 3.2e-05 kPa
391.16 K	–	0.000748 ± 3.7e-05 kPa and 0.000758 ± 3.8e-05 kPa and 0.000757 ± 3.8e-05 kPa
393.22 K	–	0.000928 ± 4.6e-05 kPa and 0.000931 ± 4.7e-05 kPa and 0.000922 ± 4.6e-05 kPa
395.27 K	–	0.001137 ± 0.00012 kPa and 0.001131 ± 0.00012 kPa and 0.001138 ± 0.00012 kPa
